Results on six compounds are retold here after ChEMBL document CHEMBL1201862, “PubChem BioAssay data set” (2004).

Structures are written as SMILES. The source made the active and inactive calls.

Experiment [1] is described as follows: NIH-3T3 fibroblast cytotoxicity, dose response, cytotoxicity control, cell-based, fluorescence, Alamar Blue, secondary assay (AID 2327).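 Also: NIH-3T3 mouse fibroblasts cultured with fluconazole at 8 µg/mL.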 Format: functional.
Experiment [2] can be described thus: fluconazole-exposed Candida albicans growth modulators – fluorescence, retest, confirmation (AID 2467). Type of experiment: functional, cell-based.
Experiment [3] concerns the target Heat shock protein HSP 90-alpha (Homo sapiens, UniProt P07900). Format: functional, organism-based.
Experiment [4] concerns INS1. In words: INS-1E survival protection against cytokine death – cell-based, luminescence, retest, dose response (AID 449756).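 Also: cell death triggered by IL-1 beta plus TNF-alpha plus IFN-gamma mixture; protective hits raise ATP signal compared with cytokine alone wells.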 Type of experiment: functional. Particulars: Rattus norvegicus.
In experiment [5] the target is T1, Replicative DNA helicase DnaB (Mycobacterium tuberculosis, UniProt P9WMR3).
T1 sequence (P9WMR3 whole entry): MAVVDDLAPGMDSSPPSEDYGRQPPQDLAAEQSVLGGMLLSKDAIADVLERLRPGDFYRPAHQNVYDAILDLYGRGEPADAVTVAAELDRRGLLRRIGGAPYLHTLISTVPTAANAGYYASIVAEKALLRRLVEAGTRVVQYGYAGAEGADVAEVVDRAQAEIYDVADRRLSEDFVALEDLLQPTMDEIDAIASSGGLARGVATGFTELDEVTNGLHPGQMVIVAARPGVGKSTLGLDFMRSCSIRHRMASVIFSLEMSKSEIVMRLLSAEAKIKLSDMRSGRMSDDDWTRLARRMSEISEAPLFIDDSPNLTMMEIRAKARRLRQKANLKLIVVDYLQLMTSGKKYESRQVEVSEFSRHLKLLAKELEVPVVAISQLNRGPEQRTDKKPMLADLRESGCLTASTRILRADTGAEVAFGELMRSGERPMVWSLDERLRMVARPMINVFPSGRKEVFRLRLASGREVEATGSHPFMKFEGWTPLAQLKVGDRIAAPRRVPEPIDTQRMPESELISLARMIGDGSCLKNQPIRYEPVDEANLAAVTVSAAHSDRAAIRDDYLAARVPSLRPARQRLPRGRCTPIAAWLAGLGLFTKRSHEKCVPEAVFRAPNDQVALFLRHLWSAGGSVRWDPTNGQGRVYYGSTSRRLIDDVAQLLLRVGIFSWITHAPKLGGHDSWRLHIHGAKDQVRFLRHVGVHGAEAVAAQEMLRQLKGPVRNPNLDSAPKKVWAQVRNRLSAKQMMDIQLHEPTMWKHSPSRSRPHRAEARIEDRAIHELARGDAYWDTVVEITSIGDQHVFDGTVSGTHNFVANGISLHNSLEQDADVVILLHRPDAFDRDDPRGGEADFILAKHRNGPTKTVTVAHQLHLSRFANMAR
As to the kind of experiment: DnaB intein splicing inhibitors, dose response, biochemical, cell-free fluorescence (AID 449749). Format: functional.

Experiment [6] deals with T2, Apoptotic protease-activating factor 1 (Homo sapiens, UniProt O14727).
T2 sequence (O14727 whole entry): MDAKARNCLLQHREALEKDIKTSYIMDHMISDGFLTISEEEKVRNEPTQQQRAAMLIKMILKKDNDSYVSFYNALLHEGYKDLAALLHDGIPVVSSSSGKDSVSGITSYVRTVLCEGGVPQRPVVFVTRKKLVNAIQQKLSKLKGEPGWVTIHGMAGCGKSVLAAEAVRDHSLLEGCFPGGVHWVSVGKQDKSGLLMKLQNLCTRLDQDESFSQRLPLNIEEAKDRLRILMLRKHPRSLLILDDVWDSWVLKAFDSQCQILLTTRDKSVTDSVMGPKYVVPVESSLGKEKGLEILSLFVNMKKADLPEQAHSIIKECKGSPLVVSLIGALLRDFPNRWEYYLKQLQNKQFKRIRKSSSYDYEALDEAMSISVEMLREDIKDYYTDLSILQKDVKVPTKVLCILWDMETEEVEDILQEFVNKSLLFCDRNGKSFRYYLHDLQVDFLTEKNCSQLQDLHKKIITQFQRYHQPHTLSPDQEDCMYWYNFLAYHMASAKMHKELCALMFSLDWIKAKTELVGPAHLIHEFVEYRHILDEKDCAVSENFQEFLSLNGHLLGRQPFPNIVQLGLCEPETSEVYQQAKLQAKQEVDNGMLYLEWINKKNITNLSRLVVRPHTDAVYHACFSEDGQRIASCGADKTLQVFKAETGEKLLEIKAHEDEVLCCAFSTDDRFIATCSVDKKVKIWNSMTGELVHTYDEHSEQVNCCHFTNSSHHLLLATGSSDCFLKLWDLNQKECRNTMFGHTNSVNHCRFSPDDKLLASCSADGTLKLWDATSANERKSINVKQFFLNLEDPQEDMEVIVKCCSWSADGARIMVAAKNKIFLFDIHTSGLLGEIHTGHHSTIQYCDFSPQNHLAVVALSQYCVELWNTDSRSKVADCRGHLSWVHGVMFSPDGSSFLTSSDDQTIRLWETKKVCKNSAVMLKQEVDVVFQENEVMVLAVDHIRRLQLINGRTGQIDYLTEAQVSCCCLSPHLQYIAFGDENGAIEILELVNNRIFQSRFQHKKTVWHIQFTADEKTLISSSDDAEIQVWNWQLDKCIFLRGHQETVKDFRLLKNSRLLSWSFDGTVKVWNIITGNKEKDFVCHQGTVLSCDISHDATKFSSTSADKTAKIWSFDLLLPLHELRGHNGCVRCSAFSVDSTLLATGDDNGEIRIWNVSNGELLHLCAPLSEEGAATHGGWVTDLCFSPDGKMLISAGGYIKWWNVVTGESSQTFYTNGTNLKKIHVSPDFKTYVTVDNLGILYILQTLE
Format: functional.

Turning to `CC(C)CC(=O)NC(c1cccs1)c1ccc2cccnc2c1O` (stereo not given), the EC50 in experiment [1] is 24.3 µM (active); in experiment [2] it was 0.58 µM (active). Moreover, the AC50 was 3.78 µM (active) in experiment [3] and 0.862 µM (active) in experiment [4].
In the case of `CCOC(=O)c1ccc(NC2=CC(=O)C(=O)c3ccccc32)cc1`, the AC50 in experiment [5] was > 380 µM (inactive). Also, in experiment [6], the IC50 was 4.73 µM (active).
Take `OC(CNCCC1C=Nc2ccccc21)Cn1c2ccc(Cl)cc2c2cc(Cl)ccc21` (stereo not given): the EC50 in experiment [1] was 14.3 µM (inconclusive); in experiment [2], > 38 µM (not active). For the same compound, the AC50 in experiment [5] was 6.51 µM (active); in experiment [3], 8.15 µM (active); in experiment [4] it was 7.32 µM (active).
On to `CCCCCCCCCCCCCCCC[N+](C)(C)C`, for which the 50% effective concentration (EC50) in experiment [1] was > 150 µM (inconclusive); in experiment [2] it was > 38 µM (not active). Further, the results for the AC50 in experiment [5], in experiment [3] and in experiment [4] were 4.78 µM (active), 8.33 µM (active) and 4.84 µM (active), respectively. Moreover, in experiment [6], the IC50 was 27.5 µM (active).
Take `COc1ccc(C(=O)c2nccc3cc(OC)c(OC)cc23)cc1OC`: the IC50 in experiment [6] is 24.4 µM (active).
Turning to `Cc1ccccc1-c1cc2c(nn1)-c1ccccc1C2=O`, the concentration at half-maximal activity (AC50) in experiment [5] is 6.85 µM (active). The 50% inhibitory concentration (IC50) in experiment [6] was 25.5 µM (active).
